# Measured values from patent publication US20110150917A1, “Small Cationic Antimicrobial Peptides” (THE UNIVERSITY OF BRITISH COLUMBIA, priority 2007, published 2011).
# Entries after “also recorded” stand apart in the source; their conditions may differ. Where no end group is shown, it is not given here.
# Tests used:
# [1] = tested on: monocytic cells; details: cited from earlier work
# [2] = mouse model; cited from earlier work
# [3] = tested on: bacterial infections; details: mouse, in vivo; cited from earlier work
# [4] = tested on: human peripheral blood mononuclear cells (PBMC); test: Chemokine induction in human PBMC (capture ELISA); type: cell-based; details: for ability to stimulate human PBMC to induce the expression of the chemokines MCP-1, Gro-α and IL8: ELISA 24 hours after peptide addition, compared to LL-37, lowest peptide concentration 5 μg/ml
# Experimental: (§1) Venous blood (20 ml) from healthy volunteers was collected in Vacutainer® collection tubes containing sodium heparin as an anticoagulant (Becton Dickinson, Mississauga, ON) in accordance with UBC ethical approval and guidelines. Blood was diluted 1:1 with complete RPMI 1640 medium and separated by centrifugation over a Ficoll-Paque® Plus (Amersham Biosciences, Piscataway, N.J., USA) density gradient. White blood cells were isolated from the buffy coat, washed twice in RPMI 1640 complete medium, and the number of peripheral blood mononuclear cells (PBMC) was determined by trypan blue exclusion. PBMC (5×10^5) were seeded into 12-well tissue culture dishes (Falcon; Becton Dickinson) at 0.75 to 1×10^6 cells/ml at 37° C. in 5% CO2. The above conditions were chosen to mimic conditions for circulating blood monocytes entering tissues at the site of infection via extravasation.
# (§2) Following incubation of the cells under various treatment regimens, the tissue culture supernatants were centrifuged at 1000×g for 5 min, then at 10,000×g for 2 min to obtain cell-free samples. Supernatants were aliquoted and then stored at −20° C. prior to assay for various chemokines by capture ELISA (eBioscience and BioSource International Inc., CA, USA respectively).
# [5] = tested on: human PBMC; test: Chemokine responses of human PBMC to CpG oligonucleotides with co-administered lantibiotic peptides; type: cell-based; details: for synergy with known adjuvants like CpG: FIG. 3, FIG. 8
# Experimental: FIG. 3A-C. Reinforcement of chemokine responses in human PBMC to the bacterial signature molecules, Cpg oligonucleotides, by co-administration of lantibiotic peptides. On the X-axis of this and subsequent Figures, N=Nisin Z, P=Pep5, G=gallidermin.
# as §1, §2
# [6] = tested on: macrophages; details: previously shown in applicant's laboratory; cited from earlier work
# [7] = tested on: S. aureus; test: Protection of mice vs. Staphylococcus aureus challenge (peritoneal); type: in vivo
# Experimental: FIG. 9. Protection of animals vs. Staphylococcus aureus challenge when administered 4 hours prior to initiating the infection. A represents the reduction in colony counts within the peritoneum of mice treated with lantibiotic peptide (or negative control 1005 or positive control 1002) and challenged with ˜10^8 S. aureus in hog gastric mucin. […] An additional peptide 1002 was included as a positive control.
# Conventional peptides are known to protect against infection (Scott et al. Nature Biotech 2007). However such peptides are very expensive whereas lantibiotics are bacterial fermentation products and thus inexpensive. Thus we assessed the reduction in colony counts after 24 hours within the peritoneum of mice treated with the lantibiotic peptide nisin (or negative control 1005 or positive control 1002) and challenged these mice 4 hours later with ˜10^8 S. aureus in hog gastric mucin. […] Thus the in vitro activities of nisin in increasing MCP-1 production in PBMC is clearly related to in vivo protection in animal models.
# [8] = tested on: Citrobacter rodentium; test: Citrobacter rodentium challenge in mice (live imaging, intestinal histology); type: in vivo
# Experimental: FIG. 10. Live-time Non-invasive imaging following Citrobacter rodentium challenge; effect of nisin treatment. Animals were pre-treated intraperitoneally with 200 μg nisin, 4 h prior to initiating the infection. Mice were then infected via gavage with 2.5×10^8 CFU of Citrobacter rodentium (lux—luminescence labeled). Live mice were followed with a CCD camera over time to assess bacterial clearance/resolution of infection.
# FIG. 11. Histology of the intestines of Citrobacter treated animals after sacrifice at day 11; effect of nisin treatment. A. Sections of (from right to left): normal uninfected, saline treated infected, and nisin-treated intestines. Letter labels are a. Inflammatory infiltrate and edema; b. elongated crypts (hyperplasia); c. sloughing of damaged epithelial cells (mucosal integrity); d. depletion of mucous in goblet cells. B. Scoring of these micrographs.
# [9] = intestines, sacrifice at day 11, p<0.05, FIG. 11
substance,measurement,setting,value
"LL-37: natural human host defence peptide (LLGDFFRKSKEKIGKEFKRIVQRIKDFLRNLVPRTES; Antibacterial peptide LL-37; UniProt P49913 134-170, looked up)",anti-endotoxic activity in vitro (suppression of LPS-mediated induction of TNFα),[1],excellent anti-endotoxic activity
same,endotoxin mediated TNFα induction and lethality,[2],reduce endotoxin mediated TNFα induction and lethality
same,protection against bacterial infections,[3],able to protect against bacterial infections
"Nisin A: lantibiotic, a variant of Nisin Z (ITSISLCTPGCKTGALMGCNMKTATCHCSIHVSK; thioether (positions not given here); also: lantibiotic; UniProt P13068 24-57, looked up)",ability to induce MCP-1,"[4]; 24 hours, 100 μg of peptide, ELISA, FIG. 7",excellent activity
"Nisin Z: cationic lantibiotic bacteriocin purified from L. lactis NIZO 22186 fermentation broth (ITSISLCTPGCKTGALMGCNMKTATCNCSIHVSK; thioether (positions not given here); also: lantibiotic; UniProt P29559 24-57, looked up)","ability to stimulate human PBMC to induce the expression of the chemokines MCP-1, Gro-α and IL8",[4]; FIG. 2A-C,most effective; also recorded: ability to induce chemokines
same,dose response of chemokine induction,"[4]; between 30 and 150 μg/ml, FIG. 2A-C",good dose response
same,synergy with known adjuvants like CpG,[5],show synergy
same,MCP-3 release above the additive effect of CpG alone and lantibiotic alone,[5]; p<0.05,statistically significantly (p<0.05) increased
same,"inducing MCP-1 and IL6, compared with CpG",[5]; vs three classes of CpG,superior to any of the three classes of CpG
"Pep5: cationic lantibiotic purified from producer strain S. epidermidis 25 (TAGPAIRASVKQCQKTLKATRLFTVSCKGKNGCK; thioether (positions not given here); also: lantibiotic; UniProt P19578 27-60, looked up)","ability to stimulate human PBMC to induce the expression of the chemokines MCP-1, Gro-α and IL8",[4]; FIG. 2A-C,ability to induce chemokines
same,synergy with known adjuvants like CpG,[5],show synergy
"gallidermin: cationic lantibiotic purified from Staphylococcus gallinarum Tü 3928 (IASKFLCTPGCAKTGSFNSYCC; thioether (positions not given here); also: lantibiotic; UniProt P21838 31-52, looked up)","ability to stimulate human PBMC to induce the expression of the chemokines MCP-1, Gro-α and IL8",[4]; FIG. 2A-C,quite effective; also recorded: ability to induce chemokines
same,synergy with known adjuvants like CpG,[5],show synergy
"indolicidin: 13-mer peptide (ILPWKWPWWPWRR; ends and bridges not checked; UniProt P33046 131-143, looked up)",anti-endotoxic activity (suppression of LPS-stimulated TNFα by macrophages),[6],rather modest anti-endotoxic activity
nisin,synergy in inducing MCP-1 over and above the individual components,"[5]; adjuvant formulations, ratios 2:1, 1:1 and 1:2 nisin to CpG, FIG. 8",demonstrated synergy
same,colony counts within the peritoneum,"[7]; after 24 hours, peptide 4 hours before ~10^8 S. aureus in hog gastric mucin, FIG. 9A",reducing average colony counts
same,visual observation scores (physiological consequences),"[7]; cf. control peptides 1002 and 1005, FIG. 9B",vastly improved
same,infection in the gut / bacterial clearance,"[8]; 200 μg nisin intraperitoneally 4 h before gavage with 2.5×10^8 CFU, CCD imaging, FIG. 10",substantial decrease in infection in the gut; also recorded: superior clearance
same,duration of the decrease in infection / superior clearance,"[8]; after injection of nisin, FIG. 10",up to 11 days
same,damage to epithelial integrity (histology score),[8]; [9],decrease
same,goblet cell depletion (histology score),[8]; [9],decrease
same,inflammatory exudate and edema (histology score),[8]; [9],significant (p<0.05) increase
